Measurements taken from patent EP3884956A1, “METHODS FOR PRODUCING HEME PEROXIDASES” (Technische Universität Wien, priority 2020, dated 2021).
Numbering of substitutions follows the chain as printed.

Key:
Test in all cases: Enzyme kinetic parameters, 96-well plate assay
Assay type in all cases: biochemical
[1] = target: T1, plant-derived HRP (pHRP; Plant HRP Type VI-A, horseradish peroxidase) (Armoracia rusticana, UniProt P00433); details: Table 19; ABTS 0.1 - 7 mM, 1 mM hydrogen peroxide, 50 mM phosphate-citrate buffer pH 5, 30 °C
T1 sequence (P00433 31-338): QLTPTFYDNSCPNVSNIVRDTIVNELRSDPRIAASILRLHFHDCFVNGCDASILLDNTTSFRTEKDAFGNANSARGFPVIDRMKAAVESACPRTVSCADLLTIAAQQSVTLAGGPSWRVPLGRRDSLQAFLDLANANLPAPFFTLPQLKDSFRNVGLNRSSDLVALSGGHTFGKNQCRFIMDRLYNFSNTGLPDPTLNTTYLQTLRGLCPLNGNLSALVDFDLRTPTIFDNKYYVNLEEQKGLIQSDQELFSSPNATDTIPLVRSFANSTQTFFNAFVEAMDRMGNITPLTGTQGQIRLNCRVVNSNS
Experimental: (§1) Plant HRP Type VI-A (Cat. No.: P6782) was obtained from Sigma-Aldrich (St. Louis, MO, USA). All HRP variants produced in E. coli consisted of the sequence as set forth in SEQ ID NO: 2 with the indicated mutations unless specified otherwise.
(§2) For measurements with 3,3',5,5'-tetramethylbenzidine (TMB) as substrate, the reaction mixture in each well of the 96-well plate contained a saturating hydrogen peroxide concentration of 1 mM and varying TMB concentrations (20 - 550 µM) in 50 mM phosphate-citrate buffer pH 5 in a final volume of 200 µL. Protein sample (5 µL) was mixed with 175 µl TMB-buffer mixture and the reaction was started with 20 µl hydrogen peroxide solution (10 mM). The increase in absorption was followed at 652 nm for 60s at 30 °C in a Tecan Infinite M200 PRO instrument. The kinetic parameters were calculated using Sigma Plot software (Systat Software INC., San Jose, CA, USA) and an extinction coefficient of ε652 = 39 mM^-1 cm^-1 (see Josephy, et al. "The horseradish peroxidase-catalyzed oxidation of 3, 5, 3', 5'-tetramethylbenzidine. Free radical and charge-transfer complex intermediates." Journal of Biological Chemistry 257.7 (1982): 3669-3675).
(§3) The increase in absorption was followed at 420 nm for 120 s at 30 °C in a Tecan Infinite M200 PRO instrument. The kinetic parameters were calculated using Sigma Plot software (Systat Software INC., San Jose, CA, USA) and an extinction coefficient of ε420 = 36 mM^-1 cm^-1 (see Childs and Bardsley. "The steady-state kinetics of peroxidase with 2, 2'-azino-di-(3-ethyl-benzthiazoline-6-sulphonic acid) as chromogen." Biochemical Journal 145.1 (1975): 93-103).

[2] = target: T2, horseradish peroxidase variant HRP N13D/N57S/N175S/N255D/N268D (Armoracia rusticana, UniProt P00433, N205S/N285D/N298D/N43D/N87S); details: 50 mM phosphate-citrate buffer pH 5, 30 °C
T2 sequence (P00433 31-338 N43D/N87S/N205S/N285D/N298D): T1 sequence (P00433 31-338) with N13D, N57S, N175S, N255D, N268D
Experimental: as §1, §2, §3, §3

[3] = target: T3, horseradish peroxidase variant HRP N13D/N57S/P146Q/N175S/N255D/N268D/N275K (mHRP, SEQ ID NO: 4) (Armoracia rusticana, UniProt P00433, N205S/N285D/N298D/N305K/N43D/N87S/P176Q); details: 50 mM phosphate-citrate buffer pH 5, 30 °C; for Vmax (substrate ABTS): ABTS 0.1 - 7 mM, 1 mM hydrogen peroxide
T3 sequence (P00433 31-338 N43D/N87S/P176Q/N205S/N285D/N298D/N305K): T1 sequence (P00433 31-338) with N13D, N57S, P146Q, N175S, N255D, N268D, N275K
Experimental: as §1, §2, §3, §3

[4] = target: T4, wild-type HRP (rHRP, horseradish peroxidase variant C1A, SEQ ID NO: 2) (Armoracia rusticana, UniProt P00433); details: Table 20; TMB 20 - 550 µM, 1 mM hydrogen peroxide, 50 mM phosphate-citrate buffer pH 5, 30 °C
T4 sequence (P00433 31-338): T1 sequence (P00433 31-338)
Experimental: as §1, §2, §3

[5] = Table 17, hydrogen peroxide 0.001 - 1 mM, 10 mM ABTS
[6] = Table 17, hydrogen peroxide 0.001 - 1 mM, 10 mM ABTS, read-out: Km (substrate H2O2)

With `CCn1c(=NN=c2sc3cc(S(=O)(=O)O)ccc3n2CC)sc2cc(S(=O)(=O)O)ccc21` [ABTS, 2,2'-azino-bis(3-ethylbenzothiazoline-6-sulfonic acid)] the “Vmax (substrate ABTS)” value [1] was 1285 ± 70 U/mg, the “Vmax (substrate ABTS)” value ([2]; Table 18, ABTS 0.1 - 7 mM, 1 mM hydrogen peroxide) was 1224 ± 115 U/mg and the “Vmax (substrate ABTS)” value ([3]; Table 18) was 1214 ± 98 U/mg. For the same compound, the “Vmax (substrate ABTS)” value ([3]; Table 19) was 1203 ± 96 U/mg.

With `OO` [H2O2, hydrogen peroxide] the “Vmax (substrate H2O2)” value [2, 5] was 2003 ± 14 U/mg, the “kcat (substrate H2O2)” value [2, 5] was 1152 ± 8.3 s⁻¹ and the Km [2, 6] was 174 ± 4 µM. The “Vmax (substrate H2O2)” value [3, 5] was 2337 ± 38 U/mg, the “kcat (substrate H2O2)” value [3, 5] was 1344 ± 22 s⁻¹ and the Km [3, 6] was 171 ± 9 µM.

In the case of `Cc1cc(-c2cc(C)c(N)c(C)c2)cc(C)c1N` [TMB, 3,3',5,5'-tetramethylbenzidine], the “Vmax (substrate TMB)” value [4] is reported as 7146 ± 355 U/mg and the “kcat (substrate TMB)” value [4] is reported as 4169 ± 207 s⁻¹.
